Reference: ChEMBL document CHEMBL1777702, “N⁴-[Alkyl-(hydroxyphosphono)phosphonate]-cytidine-new drugs covalently linking antimetabolites (5-FdU, araU or AZT) with bone-targeting bisphosphonates (alendronate or pamidronate)” (Bioorg Med Chem, 2011)
pIC50: −log10 of the molar value.

Assays:
[1] = Cytotoxicity against mouse LLC cells after 24 hrs by resazurin assay; assay type: functional, cell-based, Lewis lung carcinoma; settings: for pIC50: Mus musculus, Lewis lung carcinoma, 24 h, read-out: IC50
[2] = Binding affinity to 7 gram of hydroxyapatite at 246 mg after 24 hrs by UV-spectrophotometer analysis; assay type: physicochemical
[3] = system: RAW264.7; assay: cells; settings: Mus musculus, RAW264.7, 72 h
Description: Cytotoxicity against mouse RAW264.7 cells after 72 hrs by resazurin assay

[4] = system: RAW264.7
Description: Cytotoxicity against mouse RAW264.7 cells after 24 hrs by resazurin assay

[5] = Cytotoxicity against mouse LLC cells after 72 hrs by resazurin assay; assay type: functional, cell-based; settings: Lewis lung carcinoma
[6] = Binding affinity to 7 gram of hydroxyapatite at 246 mg followed by acidified with hydrochloric acid at pH 2 measured after 24 hrs by UV-spectrophotometer analysis; assay type: physicochemical; settings: pH 2, 24 h
[7] = system: SNB-75; assay: Growth inhibition of human SNB75 cells assessed as cell growth at 10 uM after 48 hrs by SRB assay relative to control; assay type: functional; settings: SNB-75, 48 h, read-out: Activity
[8] = system: Malme-3M; assay: Growth inhibition of human MALME-3M cells assessed as cell growth at 10 uM after 48 hrs by SRB assay relative to control; assay type: functional; settings: read-out: Activity
[9] = Chemical stability of the compound in hydrochloric acid at pH 2; assay type: physicochemical; settings: buffer
[10] = system: EKVX; assay: Growth inhibition of human EKVX cells assessed as cell growth at 10 uM after 48 hrs by SRB assay relative to control; assay type: functional; settings: read-out: Activity
[11] = system: RAW264.7; assay: Selectivity ratio of IC50 for mouse RAW264.7 cells to IC50 for mouse LLC cells
[12] = Binding affinity to 5 gram of hydroxyapatite at 246 mg after 24 hrs by UV-spectrophotometer analysis; assay type: physicochemical
[13] = system: SF-268; assay: Growth inhibition of human SF268 cells assessed as cell growth at 10 uM after 48 hrs by SRB assay relative to control; assay type: functional; settings: SF-268, 48 h, read-out: Activity
[14] = system: MDA-MB-435; assay: Growth inhibition of human MDA-MB-435 cells assessed as cell growth at 10 uM after 48 hrs by SRB assay relative to control; assay type: functional; settings: MDA-MB-435, 48 h, read-out: Activity
[15] = system: OVCAR-3; assay: Growth inhibition of human OVCAR3 cells assessed as cell growth at 10 uM after 48 hrs by SRB assay relative to control; assay type: functional; settings: OVCAR-3, 48 h, read-out: Activity
[16] = system: HOP-62; assay: Growth inhibition of human HOP62 cells assessed as cell growth at 10 uM after 48 hrs by SRB assay relative to control; assay type: functional; settings: HOP-62, 48 h, read-out: Activity
[17] = system: HL-60(TB); assay: Growth inhibition of human HL-60(TB) cells assessed as cell growth at 10 uM after 48 hrs by SRB assay relative to control; assay type: functional; settings: HL-60, 48 h, read-out: Activity
[18] = system: NCI-H322M; assay: Growth inhibition of human NCI-H322M cells assessed as cell growth at 10 uM after 48 hrs by SRB assay relative to control; assay type: functional; settings: read-out: Activity
[19] = system: CAKI-1; assay: Growth inhibition of human Caki1 cells assessed as cell growth at 10 uM after 48 hrs by SRB assay relative to control; assay type: functional; settings: CAKI-1, 48 h, read-out: Activity
[20] = system: SF-539; assay: Growth inhibition of human SF539 cells assessed as cell growth at 10 uM after 48 hrs by SRB assay relative to control; assay type: functional; settings: SF-539, 48 h, read-out: Activity

## O=c1[nH]c(=O)n([C@H]2C[C@H](O)[C@@H](CO)O2)cc1F [FLOXURIDINE]
[1]
  pIC50: 4.85
[2]
  Activity: 15%
[3]
  pIC50: 4.52
[4]
  IC50: Not Active
[5]
  pIC50: 5.70

## O=c1nc(NCCCC(O)(P(=O)([O-])O)P(=O)([O-])O)c(F)cn1[C@H]1C[C@H](O)[C@@H](CO)O1.[Na+].[Na+]
[6]
  Activity: 74%
[1]; lewis lung carcinoma
  IC50: Not Active
[7]
  growth at 10 µM: 87%
[2]
  Activity: 87%
[8]
  growth at 10 µM: 89%
[9]
  Stability: Stable
[10]
  growth at 10 µM: 82%
[11]
  Ratio IC50: 167
[12]
  Activity: 41%
[13]
  growth at 10 µM: 87%
[14]
  growth at 10 µM: 87%
[3]
  pIC50: 4.60
[15]
  growth at 10 µM: 88%
[16]
  growth at 10 µM: 93%
[17]
  growth at 10 µM: 62%
[18]
  growth at 10 µM: 89%
[19]
  growth at 10 µM: 79%
[20]
  growth at 10 µM: 95%
[4]
  IC50: Not Active
[5]
  pIC50: 6.82

## NCCCC(O)(P(=O)(O)O)P(=O)(O)O
[1]
  pIC50: 6.37
[5]
  pIC50: 5.58
